The values below come from ChEMBL document CHEMBL1158242, “New bioactive cerebrosides from Arisaema amurense” (1996).

The subject of test [1] is Hepatocyte. The experiment in a line: Antihepatotoxic activity against CCl4-induced toxicity in rat hepatocytes assessed as effect on GPT activity at 5 uM by Reitman-Fankel method relative to control. The class given is functional.
Test [2] deals with Hepatocyte. Description: Antihepatotoxic activity against CCl4-induced toxicity in rat hepatocytes assessed as effect on SDH activity at 5 uM by Geralch method relative to control. Format: functional.

In the case of `CCCCCCCCC/C=C/CC/C=C/[C@@H](O)[C@H](CO[C@@H]1O[C@H](CO)[C@@H](O)[C@H](O)[C@H]1O)NC(=O)C(O)CCCCCCCCCCCCCCCC` (some centres not stated), the Activity is recorded as 51.6% in the test with Hepatocyte [1] and 46.1% in the test on Hepatocyte [2].
Turning to `CCCCCCCCC/C=C\CC/C=C/[C@@H](O)[C@H](CO[C@@H]1O[C@H](CO)[C@@H](O)[C@H](O)[C@H]1O)NC(=O)[C@H](O)CCCCCCCCCCCCCCCCCC`, the Activity came out at 53.8% with Hepatocyte [1] and 51.2% in the test with Hepatocyte [2].
On the same counts, the results for `CCCCCCCCC/C=C\CC/C=C/[C@@H](O)[C@H](CO[C@@H]1O[C@H](CO)[C@@H](O)[C@H](O)[C@H]1O)NC(=O)C(O)CCCCCCCCCCCCCC` (some centres not stated) are 54.4% and 71.2%.
For the compound `CCCCCCCCC/C=C\CC/C=C/[C@@H](O)[C@H](CO[C@@H]1O[C@H](CO)[C@@H](O)[C@H](O)[C@H]1O)NC(=O)C(O)CCCCCCCCCCCCCCCC` (some centres not stated), the Activity in the test on Hepatocyte [1] is recorded as 35.1%; with Hepatocyte [2] it was 36.9%.
The like results for `CCCCCCCCC/C=C/CC/C=C/[C@@H](O)[C@H](CO[C@@H]1O[C@H](CO)[C@@H](O)[C@H](O)[C@H]1O)NC(=O)C(O)CCCCCCCCCCCCCCCCCC` (some centres not stated) were, in that order, 22.5% and 7.2%.
On the same counts, the results for `COc1cc(C2Oc3cc([C@H]4Oc5cc(O)cc(O)c5C(=O)[C@@H]4O)ccc3OC2CO)ccc1O` (some centres not stated) [SILIBININ] are 48.7% and 42.3%.
